Assay results published in US20240010961A1 (priority 2020, published 2024).
Where two headings read alike, the source gives them in different places.

Experiments:
SAOS-LM7 (osteosarcoma) = settings: cited from earlier work
EW-7 (Ewing's sarcoma) = settings: EW-7 in mice; cited from earlier work
hepatocytes = test: MOI validation: hepatocyte drug metabolism quantified in culture medium by liquid chromatography mass spectrometry; format: in vitro ADME; settings: hepatocytes in well insert, medium sampled 0.5-72 h
Description: The MOI can be validated for all drugs of interest prior to applying it to sarcoma organoids. In one embodiment, the validation process includes printing 1,000-20,000 hepatocytes in the well insert and incubating in medium for 72 hours. In some embodiments, between about 5,000 and about 10,000 hepatocytes are provided in the well insert. At the 0.5, 1, 2, 4, 8, 12, 24, 48 and 72 h time-points, culture medium is collected from the well. Liquid chromatography mass spectrometry can be used to quantify the parent compound, its metabolites, and their concentrations. The goal is to identify conditions that recreate in vivo drug metabolism. […] To optimize these parameters, the size, shape, and cell density of the well insert can be changed if necessary. Hepatocyte viability and proliferation can be assessed for each time-point by Calcein AM and propidium iodide staining as well as an ATP assay. Optimal hepatocyte conditions and incubation periods for each drug can then be used in subsequent experiments.

Description for tumor cells: Using the MOI device, tumor cells were co-cultured without, FIG. 12A, and with, FIG. 12B, liver organoid suspended on the MOI device.

O=P1(N(CCCl)CCCl)NCCCO1 (centres unmarked) [cyclophosphamide]
tumor cell viability (tumor cells; control, without liver organoid on the MOI device (FIG. 12A), logarithmically increasing concentration): not significantly diminished
tumor cell viability (tumor cells; with MOI-device-supported liver organoid (FIG. 12B), higher CP concentrations): decreased

O=P1(NCCCl)OCCCN1CCCl (centres unmarked) [ifosfamide]
sensitivity of cell line in mice (SAOS-LM7 (osteosarcoma)): sensitive
sensitivity of cell line in mice (EW-7 (Ewing's sarcoma)): sensitive
fraction converted into chloro-acetaldehyde (hepatocytes): 25-50%
